# From patent US12503438B2, “Compounds for the treatment of kinase-dependent disorders” (Exelixis, Inc., priority 2019, dated 2025)
# What was measured:
# AXL = biological target: T1, AXL (Homo sapiens, UniProt P30530); assay: AXL autophosphorylation ELISA in A-172 cells; format: cell-based; conditions: cellular activity, Gas6-stimulated, phospho-AXL ELISA
# T1 construct: endogenous in cells; host or cells: A-172 glioblastoma cells (ATCC #CRL-1620)
# T1 sequence (P30530 26-894): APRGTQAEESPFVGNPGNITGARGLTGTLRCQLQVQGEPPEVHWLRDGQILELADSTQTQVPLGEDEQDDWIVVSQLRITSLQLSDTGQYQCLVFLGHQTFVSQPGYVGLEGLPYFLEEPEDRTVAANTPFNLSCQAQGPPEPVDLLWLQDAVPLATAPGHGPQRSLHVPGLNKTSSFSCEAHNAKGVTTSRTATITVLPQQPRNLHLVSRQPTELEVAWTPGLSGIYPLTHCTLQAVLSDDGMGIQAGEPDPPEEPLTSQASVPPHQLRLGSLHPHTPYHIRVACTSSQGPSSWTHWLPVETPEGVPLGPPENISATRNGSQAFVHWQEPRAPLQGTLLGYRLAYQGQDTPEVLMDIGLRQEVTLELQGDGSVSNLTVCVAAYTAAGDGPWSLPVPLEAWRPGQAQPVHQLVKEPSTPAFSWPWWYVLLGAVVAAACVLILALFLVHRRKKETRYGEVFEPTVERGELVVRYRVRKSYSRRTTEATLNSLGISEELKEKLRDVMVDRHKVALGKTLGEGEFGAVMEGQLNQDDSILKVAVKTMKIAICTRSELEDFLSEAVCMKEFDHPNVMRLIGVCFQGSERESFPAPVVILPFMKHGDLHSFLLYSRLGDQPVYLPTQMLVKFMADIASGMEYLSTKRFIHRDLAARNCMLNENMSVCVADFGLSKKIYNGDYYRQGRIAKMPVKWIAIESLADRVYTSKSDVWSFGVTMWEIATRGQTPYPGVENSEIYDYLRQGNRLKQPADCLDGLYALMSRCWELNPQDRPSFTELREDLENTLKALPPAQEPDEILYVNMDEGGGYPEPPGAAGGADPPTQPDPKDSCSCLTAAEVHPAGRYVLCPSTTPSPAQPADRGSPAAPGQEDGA
# Procedure, shortened: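 Serum-starved (24 h) A-172 glioblastoma cells got an 8-point compound series (0.3% DMSO) for 1 h, then 1 μg/mL human Gas6 for 15 min. Lysate phospho-AXL quantified by ELISA against phospho-AXL standard, normalized to DMSO and reference-inhibitor controls; IC50 by 4-parameter logistic fit.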
# Met = Met (Homo sapiens, UniProt P08581); assay: Human Met kinase assay (33P-phosphoryl transfer radiometric, KinaseProfiler); parameters: Human Met (residues R974-S1390 with A1209G and V1290L, 3.4 nM); purchased Eurofins Pharma Discovery Services UK Limited (KinaseProfiler service); conditions: biochemical activity; 10 μM ATP; read-out: c-Met IC50
# Met, sequence (P08581 974-1390): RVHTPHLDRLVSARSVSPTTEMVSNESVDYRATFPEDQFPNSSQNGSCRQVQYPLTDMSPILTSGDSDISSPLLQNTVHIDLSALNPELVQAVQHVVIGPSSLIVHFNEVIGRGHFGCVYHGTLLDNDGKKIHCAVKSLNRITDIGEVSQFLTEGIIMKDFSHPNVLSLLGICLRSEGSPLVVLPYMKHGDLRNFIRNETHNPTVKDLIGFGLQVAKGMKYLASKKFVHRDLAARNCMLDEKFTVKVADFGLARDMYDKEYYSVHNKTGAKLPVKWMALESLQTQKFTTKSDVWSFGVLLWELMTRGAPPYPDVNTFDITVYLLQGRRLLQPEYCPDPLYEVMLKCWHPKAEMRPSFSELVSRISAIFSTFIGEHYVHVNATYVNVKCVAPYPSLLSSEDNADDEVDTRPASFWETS
# Experimental: Kinase activity and compound inhibition were investigated using the ^33P-Phosphoryl transfer radiometric kinase assay, performed using the KinaseProfiler™ service of Eurofins Pharma Discovery Services UK Limited. Dose-response experiments were performed using nine compound concentrations in a 96-well microtiter plate. For each assay, all compounds were prepared to a 50× final assay concentration (50 μM) in 100% DMSO, then diluted in a half-log series, with the final top concentration at 1 μM. This working stock of the compound was added to the assay well as the first component in the reaction, followed by the remaining components as detailed in the following assay protocols below. The positive control wells (100% kinase activity) contain all components of the reaction including 2% DMSO (control for solvent effects), except the compound of interest. Blank wells contain all components of the reaction, with the reference inhibitor, staurosporine. This reference compound was used to abolish kinase activity and generated the 0% kinase activity base-line. IC50 values were calculated by nonlinear regression analysis using the sigmoidal dose-response (variable slope) curve fit on XLFit version 5.3 (ID Business Solutions).
# Human Met (residues R974-S1390 with A1209G and V1290L, 3.4 nM) was incubated with 8 mM MOPS pH 7.0, 0.2 mM EDTA, 250 μM KKKGQEEEYVFIE, 1 mM sodium orthovanadate, 5 mM […], 10 mM magnesium acetate, and 10 μM [γ-^33P-ATP]. The reaction was initiated by the addition of the Mg/ATP mix. After incubation for 40 minutes at room temperature, the reaction was stopped by the addition of phosphoric acid to a concentration of 0.5%. A reaction aliquot of 10 μL was then spotted onto a P30 filtermat and washed four times for 4 minutes in 0.425% phosphoric acid and once in methanol prior to drying and scintillation counting. Incorporated ^33P was measured using the Wallac Microbeta scintillation counter (Perkin Elmer).
IC50 (AXL),IC50 (Met),Structure (SMILES)
10 to 100 nM,≤ 10 nM,"Cn1ccnc1-c1ccc2c(Oc3ccc(NC(=O)C4(C(=O)Nc5ccc(F)cc5)CC4)cc3)ccnc2c1 [Compound 75, 1-N′-(4-Fluorophenyl)-1-N-[4-[7-(1-methylimidazol-2-yl)quinolin-4-yl]oxyphenyl]cyclopropane-1,1-dicarboxamide]"
10 to 100 nM,10 to 100 nM,"O=C(Nc1ccc(F)cc1)C1(C(=O)Nc2ccc(Oc3ccnc4cc(-c5cnn(C(F)(F)F)c5)ccc34)cc2)CC1 [Compound 12, 1-N′-(4-Fluorophenyl)-1-N-[4-[7-[1-(trifluoromethyl)pyrazol-4-yl]quinolin-4-yl]oxyphenyl]cyclopropane-1,1-dicarboxamide]"
≤ 10 nM,10 to 100 nM,"COCCn1cc(-c2ccc3c(Oc4ccc(NC(=O)C5(C(=O)Nc6ccc(F)cc6)CC5)cc4)ccnc3c2)cn1 [Compound 10, 1-N′-(4-Fluorophenyl)-1-N-[4-[7-[1-(2-methoxyethyl)pyrazol-4-yl]quinolin-4-yl]oxyphenyl]cyclopropane-1,1-dicarboxamide]"
≤ 10 nM,≤ 10 nM,"O=C(Nc1ccc(F)cc1)C1(C(=O)Nc2ccc(Oc3ccnc4cc(-c5ccnnc5)ccc34)cc2)CC1 [Compound 28, 1-N′-(4-Fluorophenyl)-1-N-[4-(7-pyridazin-4-ylquinolin-4-yl)oxyphenyl]cyclopropane-1,1-dicarboxamide]"
10 to 100 nM,≤ 10 nM,"O=C(Nc1ccc(F)cc1)C1(C(=O)Nc2ccc(Oc3ccnc4cc(-c5ncco5)ccc34)cc2)CC1 [Compound 66, 1-N′-(4-Fluorophenyl)-1-N-[4-[7-(1,3-oxazol-2-yl)quinolin-4-yl]oxyphenyl]cyclopropane-1,1-dicarboxamide]"
≤ 10 nM,≤ 10 nM,"O=C(Nc1ccc(F)cc1)C1(C(=O)Nc2ccc(Oc3ccnc4cc(-c5cnn(CC(F)F)c5)ccc34)cc2)CC1 [Compound 15, 1-N-[4-[7-[1-(2,2-Difluoroethyl)pyrazol-4-yl]quinolin-4-yl]oxyphenyl]-1-N′-(4-fluorophenyl)cyclopropane-1,1-dicarboxamide]"
10 to 100 nM,10 to 100 nM,"O=C(Nc1ccc(F)cc1)C1(C(=O)Nc2ccc(Oc3ccnc4cc(-c5ccn(C(F)F)n5)ccc34)cc2)CC1 [Compound 84, 1-N-[4-[7-[1-(Difluoromethyl)pyrazol-3-yl]quinolin-4-yl]oxyphenyl]-1-N′-(4-fluorophenyl)cyclopropane-1,1-dicarboxamide]"
